The target of this assay is T1, hT1R1/hT1R3 umami receptor (Homo sapiens, UniProt Q7RTX0+Q7RTX1).
T1 construct: expressed in transfected cells; host or cells: HEK293 derivative stably expressing Gα15, clone I-17, expression induced with mifepristone
T1 sequence (Q7RTX1 21-841): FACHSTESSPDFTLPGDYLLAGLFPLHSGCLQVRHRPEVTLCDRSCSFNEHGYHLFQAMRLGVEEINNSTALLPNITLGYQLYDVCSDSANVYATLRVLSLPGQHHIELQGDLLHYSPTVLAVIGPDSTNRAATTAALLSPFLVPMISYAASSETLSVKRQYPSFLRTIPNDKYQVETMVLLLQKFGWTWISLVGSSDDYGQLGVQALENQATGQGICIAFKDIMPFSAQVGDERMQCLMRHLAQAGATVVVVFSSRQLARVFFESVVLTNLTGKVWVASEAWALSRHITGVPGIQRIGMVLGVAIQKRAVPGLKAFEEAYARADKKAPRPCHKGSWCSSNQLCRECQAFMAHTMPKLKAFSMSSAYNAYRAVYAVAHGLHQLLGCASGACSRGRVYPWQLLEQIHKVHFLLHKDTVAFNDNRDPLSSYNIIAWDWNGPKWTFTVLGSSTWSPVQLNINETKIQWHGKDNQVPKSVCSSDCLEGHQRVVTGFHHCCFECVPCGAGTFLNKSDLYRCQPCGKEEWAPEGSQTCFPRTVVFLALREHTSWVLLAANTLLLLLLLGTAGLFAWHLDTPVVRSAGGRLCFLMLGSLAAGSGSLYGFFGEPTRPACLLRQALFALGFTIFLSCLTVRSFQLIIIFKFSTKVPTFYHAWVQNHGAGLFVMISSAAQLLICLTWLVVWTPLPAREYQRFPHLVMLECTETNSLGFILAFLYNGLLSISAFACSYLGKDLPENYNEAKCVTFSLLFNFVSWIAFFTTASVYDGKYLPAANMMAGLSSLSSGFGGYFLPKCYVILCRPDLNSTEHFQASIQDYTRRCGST
T1 sequence (Q7RTX0 21-852): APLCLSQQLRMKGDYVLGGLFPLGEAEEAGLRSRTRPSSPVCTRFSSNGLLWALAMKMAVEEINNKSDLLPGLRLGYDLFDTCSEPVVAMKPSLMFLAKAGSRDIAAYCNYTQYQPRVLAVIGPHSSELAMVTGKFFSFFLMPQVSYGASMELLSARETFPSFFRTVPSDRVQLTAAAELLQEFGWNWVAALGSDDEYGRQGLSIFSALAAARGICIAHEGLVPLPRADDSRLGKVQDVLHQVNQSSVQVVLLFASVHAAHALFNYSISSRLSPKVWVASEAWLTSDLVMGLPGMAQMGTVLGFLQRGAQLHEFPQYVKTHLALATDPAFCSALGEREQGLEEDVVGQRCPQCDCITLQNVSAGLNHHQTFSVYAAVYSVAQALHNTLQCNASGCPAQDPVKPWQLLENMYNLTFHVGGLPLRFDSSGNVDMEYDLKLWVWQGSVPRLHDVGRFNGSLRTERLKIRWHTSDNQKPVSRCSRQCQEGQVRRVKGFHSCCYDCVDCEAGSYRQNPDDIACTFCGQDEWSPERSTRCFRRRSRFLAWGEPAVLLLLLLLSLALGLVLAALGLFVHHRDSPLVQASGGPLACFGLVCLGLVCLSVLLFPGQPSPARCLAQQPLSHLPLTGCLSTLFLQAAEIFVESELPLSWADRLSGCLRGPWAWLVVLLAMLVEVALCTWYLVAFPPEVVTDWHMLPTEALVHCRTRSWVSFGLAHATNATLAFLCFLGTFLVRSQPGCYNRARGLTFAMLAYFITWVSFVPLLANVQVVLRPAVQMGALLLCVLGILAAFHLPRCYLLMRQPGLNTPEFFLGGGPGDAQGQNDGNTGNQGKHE
In words: Umami taste enhancement activity assay (EC50 ratio vs. MSG). It is filed as cell-based. How it is done:
A series of measurements of the dose response is run in solutions comprising MSG alone, then a second dose response is run with MSG in combination with predetermined amounts of a candidate compound of Formula (I) at the same time.
Typical compound concentrations tested were 30 μM, 10 μM, 3 μM, 1 μM, 0.3 μM, 0.1 μM and 0.03 μM. The relative efficacy of compounds of Formula (I) at enhancing the receptor was determined by calculating the magnitude of a shift in the EC50 for monosodium glutamate. Enhancement was defined as a ratio (EC50R) corresponding to the EC50 of monosodium glutamate, determined in the absence of the test compound, divided by the EC50 of monosodium glutamate, determined in the presence of the test compound.
Stated alternatively, “EC50 ratio” as compared to MSG is calculated based on the following definitions: EC50 Ratio vs. MSG=EC50 (MSG)/EC50(MSG+[Compound]) • wherein “[compound]” refers to the concentration of the compound of Formula (I) used to elicit (or enhance or potentiate) the MSG dose response.

For `COc1ccccc1CNC(=O)C(=O)NCCc1ccccn1` [Example 122, N-(2-Methoxy-benzyl)-N′-(2-pyridin-2-yl-ethyl)-oxalamide], the “EC50 ratio (enhanced the effectiveness of monosodium glutamate)” value (compound present at 0.3 μM) is reported as 18.85. `CCC(COC)NC(=O)c1cc2cc(Cl)ccc2o1` (stereo not shown) [Example A11, 5-chloro-N-(1-methoxybutan-2-yl)benzofuran-2-carboxamide]: the “Ec50 ratio (vs. MSG)” value (Table A, compound @ 0.3 uM) came out at 6.5.

In the case of `CCCC(CCC)NC(=O)c1ccc2c(c1)OC(C)O2` (stereo not shown) [Example 18, N-(heptan-4-yl)-2-methylbenzo[d][1,3]dioxole-5-carboxamide], the “EC50 ratio (enhanced the effectiveness of monosodium glutamate)” value (compound present at 0.03 μM) is reported as 3.68. In the case of `COc1ccc(CNC(=O)c2ccccc2-n2cccc2)c(OC)c1` [Example 121, N-(2,4-dimethoxybenzyl)-2-(1H-pyrrol-1-yl)benzamide], the “EC50 ratio (enhanced the effectiveness of monosodium glutamate)” value (compound present at 1 μM) was 11. On to `COc1cccc(C(=O)N[C@H]2CCCc3ccccc32)c1O` [Example A93, (S)-2-hydroxy-3-methoxy-N-(1,2,3,4-tetrahydronaphthalen-1-yl)benzamide], for which, where the note is “Table A, compound @ 1 uM”, the “Ec50 ratio (vs. MSG)” value is 5.7.

Take `CCCC(CCC)NC(=O)Nc1ccc(OC)cc1OC` [Example 159, 1-(2,4-dimethoxyphenyl)-3-(heptan-4-yl)urea]: the “EC50 ratio (enhanced the effectiveness of monosodium glutamate)” value (compound present at 0.3 μM) was 7.61. On to `CCOc1ccc(/C=C/C(=O)NC(C)CC)cc1` (stereo not shown) [Example D13, (E)-N-sec-butyl-3-(4-ethoxyphenyl)acrylamide], for which the “Ec50 ratio (vs. MSG)” value (Table D, compound @ 0.3 uM) came to 2.7.

With `Cc1ccc(CCNC(=O)c2occc2C)cc1` [Example 120, 3-methyl-N-(p-tolylethyl)furan-2-carboxamide], the “EC50 ratio (enhanced the effectiveness of monosodium glutamate)” value (compound present at 1 μM) is 3.3. As to `CCCC(CCC)NC(=O)c1cc2ccccc2o1` [Example 25, Benzofuran-2-carboxylic(1-propylbutyl)amide], the “EC50 ratio (enhanced the effectiveness of monosodium glutamate)” value (compound present at 0.3 μM) was determined as 2.6. With `CCCC(CCC)NC(=O)Nc1ccccc1Cl` [Example 158], where the note is “compound present at 1 μM”, the “EC50 ratio (enhanced the effectiveness of monosodium glutamate)” value came to 4.95. `CCCC(CCC)NC(=O)c1cc2cc(OC)ccc2o1` [Example A10, N-(heptan-4-yl)-5-methoxybenzofuran-2-carboxamide]: the “Ec50 ratio (vs. MSG)” value (Table A, compound @ 1 uM) came to 4.51.

With `CC1CCCCC1NC(=O)c1ccc(Cl)c(Cl)c1` (stereo not shown) [Example E54, 3,4-dichloro-N-(2-methylcyclohexyl)benzamide], the “Umami EC50 ratio” value (Table E, compound concentration not given) was determined as 10.66. For the compound `CCCC(CCC)NC(=O)c1ccc2c(c1)OC(CC(=O)OCC)O2` (stereo not shown) [Example 19, Ethyl 2-(5-(heptan-4-ylcarbamoyl)benzo[d][1,3]dioxol-2-yl)acetate], the “EC50 ratio (enhanced the effectiveness of monosodium glutamate)” value (compound present at 3 μM) worked out at 2.5. On the same count and under the same terms, for `CCCC(COC(C)=O)NC(=O)c1ccc2c(c1)OCO2` (stereo not shown) [Example 14, 2-(benzo[d][1,3]dioxole-6-carboxamido)pentyl Acetate] the value was 4.1.

For `COC(=O)[C@@H](CC(C)C)NC(=O)c1ccc(OC)c(Cl)c1` [Example 62, (R)-methyl 2-(3-chloro-4-methoxybenzamido)-4-methylpentanoate], the “EC50 ratio (enhanced the effectiveness of monosodium glutamate)” value (compound present at 0.01 μM) is 13.18.

Take `CCCC(CCC)NC(=O)c1ccc(OC)cc1C#N` [Example 97, 2-cyano-N-(heptan-4-yl)-4-methoxybenzamide]: the “EC50 ratio (enhanced the effectiveness of monosodium glutamate)” value (compound present at 1 μM) turned out to be 4.52. On to `Cc1ccc(C(=O)NC2CCCc3ccccc32)s1` (stereo not shown) [Example A39, 5-Methyl-thiophene-2-carboxylic acid (1,2,3,4-tetrahydro-naphthalen-1-yl)-amide], for which the “Ec50 ratio (vs. MSG)” value (Table A, compound @ 1 uM) is on record as 2.3. As for `COc1ccc(C(=O)N[C@H](C)c2ccccc2)cc1Cl` [Example 63, (R)-3-chloro-4-methoxy-N-(1-phenylethyl)benzamide], the “EC50 ratio (enhanced the effectiveness of monosodium glutamate)” value (compound present at 0.3 μM) was found to be 2.7. In the case of `CCCC(CCC)NC(=O)c1ccc2c(c1)OC(F)(F)O2` [Example 22, 2,2-difluoro-N-(heptan-4-yl)benzo[d][1,3]dioxole-5-carboxamide], the “EC50 ratio (enhanced the effectiveness of monosodium glutamate)” value (compound present at 1 μM) was 2.87.

As to `CCOc1ccc(NC(=O)NC2CCCCC2C)cc1` (stereo not shown) [Example C10, 1-(4-ethoxyphenyl)-3-(2-methylcyclohexyl)urea], the “Ec50 ratio (vs MSG)” value (Table C, compound Con. 0.3 uM) is 2.1. As to `CCCC(CCC)NC(=O)/C=C/c1cccs1` [Example D6, N-(1-Propyl-butyl)-3-thiophen-2-yl-acrylamide], the “Ec50 ratio (vs. MSG)” value (Table D, compound @ 1 uM) stood at 6.3. Consider `CCC(CC)NC(=O)c1ccc(OC)c(Cl)c1` [Example 61, 3-chloro-4-methoxy-N-(pentan-3-yl)benzamide], for which the “EC50 ratio (enhanced the effectiveness of monosodium glutamate)” value (compound present at 0.3 μM) amounted to 6.28. For `COc1ccc(CNC(=O)c2ccnn2C)c(OC)c1` [Example 110, 2-Methyl-2H-pyrazole-3-carboxylic Acid 2,4-dimethoxy-benzylamide], the “EC50 ratio (enhanced the effectiveness of monosodium glutamate)” value (compound present at 3 μM) stood at 7.9. Regarding `O=C(NCc1ccc(OC(F)(F)F)cc1)c1ccsc1` [Example 107, Thiophene-3-carboxylic acid 4-trifluoromethoxy-benzylamide], the “EC50 ratio (enhanced the effectiveness of monosodium glutamate)” value (compound present at 3 μM) was 8.5. Take `CC1CCCC(NC(=O)c2ccc3c(c2)OCO3)C1C` (stereo not shown) [Example 4, N-(2,3-dimethylcyclohexyl)benzo[d][1,3]dioxole-5-carboxamide]: the “EC50 ratio (enhanced the effectiveness of monosodium glutamate)” value (compound present at 1 μM) is recorded as 8.4. Regarding `COc1ccc(CNC(=O)c2ccc(-c3ccccn3)s2)c(OC)c1` [Example 109, 5-Pyridin-2-yl-thiophene-2-carboxylic Acid 2,4-dimethoxy-benzylamide], under “compound present at 3 μM”, the “EC50 ratio (enhanced the effectiveness of monosodium glutamate)” value is recorded as 8. For the compound `COc1cccc(C(=O)NC2CCCc3ccccc32)c1O` (stereo not shown) [Example A87, 2-hydroxy-3-methoxy-N-(1,2,3,4-tetrahydronaphthalen-1-yl)benzamide], the “Ec50 ratio (vs. MSG)” value (Table A, compound @ 1 uM) stood at 3.8.

For the compound `CC(C)C[C@H](CO)NC(=O)c1ccc2c(c1)OCO2` [Example 8, (R)—N-(1-hydroxy-4-methylpentan-2-yl)benzo[d][1,3]dioxole-5-carboxamide], the “EC50 ratio (enhanced the effectiveness of monosodium glutamate)” value (compound present at 3 μM) is reported as 2. On to `CCCC(CCC)NC(=O)/C=C/c1ccc(OC)c(OC)c1` [Example 87, 3-(3,4-Dimethoxy-phenyl)-N-(1-propyl-butyl)-acrylamide], for which the “EC50 ratio (enhanced the effectiveness of monosodium glutamate)” value (compound present at 0.3 μM) worked out at 2.4. Still for that read-out and setting: for `Cc1cc(C(=O)NC(C)CCc2ccccc2)ccc1O` (stereo not shown) [Example 111, 4-Hydroxy-3-methyl-N-(1-methyl-3-phenyl-propyl)-benzamide] the value was 7.

Take `CCOc1ccc(NC(=O)NCCc2ccccn2)cc1` [Example 160, 1-(4-ethoxyphenyl)-3-(2-(pyridine-2-yl)ethyl)urea]: the “EC50 ratio (enhanced the effectiveness of monosodium glutamate)” value (compound present at 1 μM) is reported as 4.2.

(Values after US8124121B2, “Flavors, flavor modifiers, tastants, taste enhancers, umami or sweet tastants, and/or enhancers and use thereof” (Senomyx, Inc., priority 2003, dated 2012).)
